From patent US11952364B2, “TRK inhibitors useful as anticancer drugs” (TYLIGAND BIOSCIENCE (SHANGHAI) LIMITED, priority 2018, dated 2024)

Assays:
Assay in all cases: Cytochrome P450 inhibition in human liver microsomes
Assay type in all cases: in vitro ADME
P450 2C9 = P450 2C9 (Homo sapiens (Human), UniProt P11712)
Source text: (§1) According to the standard methods conventional in the art for cytochrome P450 enzyme system study, for example those described in Kerns, Edward H. and Di Li (2008). Drug-like Properties: Concepts. Structure Design and Methods: from ADME to Toxicity Optimization. San Diego: Academic Press; Lin, Tong et al., In Vitro Assessment of Cytochrome P450 Inhibition: Strategies for Increasing LC/MS-Based Assay Throughput Using a One-Point IC50 Method and Multiplexing High-Performance Liquid Chromatography; J. Pharm. Sci. 2007, 96(9), 2485.), the inhibitory effect of the compounds of the present disclosure on the cytochrome P450 enzyme system was investigated analogously as follows. The test compounds were evaluated by detecting the metabolism of human liver microsomes for the substrates of different subtypes of Cyp450. The liver microsomes (Sekisui XenoTech, LLC., human liver microsomes, cat. #H0610) were slowly melted on ice, and 0.482 mL of the liver microsome solution (20 mg/mL) was added to 30 mL of 100 mM potassium phosphate solution to prepare a liver microsome working solution with a concentration of 0.316 mg/mL. The test compound and specific inhibitors of different Cyp450 subtypes (as a control) were prepared into 10 mM DMSO solutions, and then 20 μL of the 10 mM DMSO compound solution was added to 180 μL of acetonitrile to obtain a 1 mM compound solution. 2 μL of such 1 mM test compound or inhibitor solution was added to 150 μL of 0.316 mg/mL liver microsome working solution to obtain a 13.16 μM compound working solution. 45.3 mg of NADPH (SIGMA, cat. #V900362) was weighted and added into 13.59 mL of deionized water to prepare a 4 mM NADPH aqueous solution. 0.2 mL of 2 mg/mL internal standard stock solution (dexamethasone in acetonitrile) was added to 1000 mL of acetonitrile (SIGMA, cat. #271004) to prepare a reaction stop solution and stored at 4° C. 150 μL 0.316 mg/mL human liver microsome working solution was added to each well of a 96-well deep plate, and 2 μL of 1 mM specific inhibitor or test compound solution was added to the corresponding wells, and then added to each well 50 μL preheated working solution of each substrate (in 4 mM NADPH solution). After incubating for 5-40 minutes respectively (different enzymes have different incubation times), 200 μL of pre-cooled reaction stop solution was added. All samples were centrifuged at 4000 rpm for 20 minutes. 150 μL of the centrifugal supernatant was then added to a new 96-well deep plate, and added to each well 150 μL of 0.1% formic acid aqueous solution, for analysis by LC/MS/MS (SCI AP4000). The single point IC50 values were calculated according to the following formula. [formula] • (Assuming Hill slope=1) • C0=concentration of test compound and inhibitor solution

P450 2D6 = P450 2D6 (Homo sapiens (Human), UniProt P10635)
Source text: as §1

P450 1A2 = P450 1A2 (Homo sapiens (Human), UniProt P05177)
Source text: as §1

P450 2C19 = P450 2C19 (Homo sapiens (Human), UniProt P33261)
Source text: as §1

P450 2C9, sequence (P11712 whole entry): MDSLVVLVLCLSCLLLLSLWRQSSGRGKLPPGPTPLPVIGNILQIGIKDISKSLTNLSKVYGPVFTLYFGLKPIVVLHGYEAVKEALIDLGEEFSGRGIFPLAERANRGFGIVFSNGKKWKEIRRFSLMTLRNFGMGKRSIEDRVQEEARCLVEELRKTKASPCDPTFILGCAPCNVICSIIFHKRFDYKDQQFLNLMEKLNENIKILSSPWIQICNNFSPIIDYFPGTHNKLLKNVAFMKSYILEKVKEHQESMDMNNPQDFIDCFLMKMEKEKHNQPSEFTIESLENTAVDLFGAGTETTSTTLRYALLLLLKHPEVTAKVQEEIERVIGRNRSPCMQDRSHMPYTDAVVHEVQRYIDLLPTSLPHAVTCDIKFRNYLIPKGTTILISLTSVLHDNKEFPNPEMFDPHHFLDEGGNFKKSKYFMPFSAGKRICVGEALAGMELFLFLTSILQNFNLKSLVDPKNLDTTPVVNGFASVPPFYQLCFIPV
P450 1A2, sequence (P05177 whole entry): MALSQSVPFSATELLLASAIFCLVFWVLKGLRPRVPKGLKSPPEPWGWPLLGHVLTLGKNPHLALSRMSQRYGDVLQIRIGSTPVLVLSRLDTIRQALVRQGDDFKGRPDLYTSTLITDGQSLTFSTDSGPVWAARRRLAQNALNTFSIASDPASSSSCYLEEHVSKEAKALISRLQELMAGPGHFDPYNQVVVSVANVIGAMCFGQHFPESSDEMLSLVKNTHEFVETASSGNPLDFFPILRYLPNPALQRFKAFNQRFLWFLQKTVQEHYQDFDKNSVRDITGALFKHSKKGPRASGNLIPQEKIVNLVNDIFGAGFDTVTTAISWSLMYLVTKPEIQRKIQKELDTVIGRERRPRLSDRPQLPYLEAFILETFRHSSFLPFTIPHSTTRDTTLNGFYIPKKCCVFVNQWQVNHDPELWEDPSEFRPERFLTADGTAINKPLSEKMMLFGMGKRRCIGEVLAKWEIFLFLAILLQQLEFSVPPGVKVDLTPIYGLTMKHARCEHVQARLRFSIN
P450 2C19, sequence (P33261 whole entry): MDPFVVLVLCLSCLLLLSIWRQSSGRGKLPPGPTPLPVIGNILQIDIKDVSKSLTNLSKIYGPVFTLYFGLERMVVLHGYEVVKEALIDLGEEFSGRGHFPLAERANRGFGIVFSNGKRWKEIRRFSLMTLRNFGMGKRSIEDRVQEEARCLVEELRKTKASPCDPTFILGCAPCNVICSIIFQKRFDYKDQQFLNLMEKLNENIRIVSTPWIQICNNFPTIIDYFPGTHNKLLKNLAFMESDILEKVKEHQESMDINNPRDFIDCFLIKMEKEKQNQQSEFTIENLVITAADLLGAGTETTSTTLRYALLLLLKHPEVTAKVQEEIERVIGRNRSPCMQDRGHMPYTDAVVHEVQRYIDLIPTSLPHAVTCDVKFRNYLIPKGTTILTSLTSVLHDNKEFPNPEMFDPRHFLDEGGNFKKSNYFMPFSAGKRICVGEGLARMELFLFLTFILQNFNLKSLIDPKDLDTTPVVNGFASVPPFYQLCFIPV
P450 2D6, sequence (P10635 whole entry): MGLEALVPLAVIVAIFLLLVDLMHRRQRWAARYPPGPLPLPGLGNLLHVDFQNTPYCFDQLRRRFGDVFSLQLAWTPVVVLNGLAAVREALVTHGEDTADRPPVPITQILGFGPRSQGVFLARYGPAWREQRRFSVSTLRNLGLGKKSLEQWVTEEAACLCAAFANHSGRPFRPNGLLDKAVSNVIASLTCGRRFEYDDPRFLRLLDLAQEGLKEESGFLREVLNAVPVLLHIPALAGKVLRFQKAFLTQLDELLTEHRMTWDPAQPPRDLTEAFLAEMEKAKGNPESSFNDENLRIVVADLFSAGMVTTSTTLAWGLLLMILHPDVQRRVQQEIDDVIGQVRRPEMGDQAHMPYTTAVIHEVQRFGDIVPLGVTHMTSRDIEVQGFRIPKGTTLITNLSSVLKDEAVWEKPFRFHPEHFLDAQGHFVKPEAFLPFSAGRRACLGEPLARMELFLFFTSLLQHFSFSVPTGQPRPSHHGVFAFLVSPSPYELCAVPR

IC50 (P450 2C9) [µM]	IC50 (P450 2D6) [µM]	IC50 (P450 1A2) [µM]	IC50 (P450 2C19) [µM]	SMILES	inhibitory activity on 2C9 compared with Merestinib (P450 2C9; statement in words)
4.2	> 10	> 10	> 10	Cc1ccc(C(=O)Nc2ccc(Oc3cc4cnn(C)c4cc3-c3cn[nH]c3)c(F)c2)c(=O)n1-c1ccc(F)cc1 [Merestinib, reference compound]	–
9.8	> 10	> 10	> 10	COc1ccc(C(=O)Nc2ccc(Oc3cc4cnn(C)c4cc3-c3cn[nH]c3)c(F)c2)c(=O)n1-c1ccc(F)cc1 [Example 12, N-(3-fluoro-4-(1-methyl-6-(1H-pyrazol-4-yl)-1H-indazol-5-yloxy)phenyl)-1-(4-fluorophenyl)-6-methoxy-2-oxo-1,2-dihydropyridine-3-carboxamide]	significantly lower than that of the prior inhibitor Merestinib
